Source: patent US20220265817A1, “THERAPEUTIC COMPOSITIONS AND METHODS FOR TREATING HEPATITIS B” (priority 2017, published 2022)
Where two headings read alike, the source gives them in different places.

Experiments:
[1] = system: D type HBV in primary human hepatocytes (HBeAg); experiment: microbe, parasite or virus in culture; assay type: cell-based; details: Hepatitis B virus, Hepatocyte
Outline: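 HBeAg in day-8 culture supernatants was quantified by ELISA, and inhibition was calculated relative to DMSO-treated wells. Compounds were dosed from day 2 at seven 3-fold dilutions in triplicate, with medium changes every other day. The cells were Percoll-purified liver-perfusion hepatocytes infected with D-type HBV on day 1.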

[2] = system: HBV rcDNA in AML12-HBV10 cells; experiment: AML12-HBV10 cell culture system, rcDNA quantitation using bDNA assay, MacSynergy II; assay type: cell-based, mouse hepatocyte cell line; details: Hepatitis B virus, AML12HBV10, in Mus musculus, 48 h, read-out: Inhibitor EC50
Description: In vitro combination studies were conducted using the method of Prichard and Shipman (Prichard M N, and Shipman C Jr., Antiviral Research, 1990, 14 (4-5), 181-205; and Prichard M N, et. al., MacSynergy II). The AML12-HBV10 cell line was developed as described in Campagna et al. (Campagna et. al., J. Virology, 2013, 87(12), 6931-6942). It is a mouse hepatocyte cell line stably transfected with the HBV genome, and which can express HBV pregenomic RNA and support HBV rcDNA (relaxed circular DNA) synthesis in a tetracycline-regulated manner. AML12-HBV10 cells were plated in 96 well tissue-culture treated microtiter plates in DMEM/F12 medium supplemented with 10% fetal bovine serum +1% penicillin-streptomycin without tetracycline and incubated in a humidified incubator at 37° C. and 5% CO2 overnight. […] The two inhibitors were tested both singly as well as in combinations in a checkerboard fashion such that each concentration of inhibitor A was combined with each concentration of inhibitor B to determine their combination effects on inhibition of rcDNA production. Following a 48 hour-incubation, the level of rcDNA present in the inhibitor-treated wells was measured using a bDNA assay (Affymetrix) with HBV specific custom probe set and manufacturer's instructions. […] Concurrently, the effect of inhibitor combinations on cell viability was assessed using replicate plates that were used to determine the ATP content as a measure of cell viability using the cell-titer glo reagent (Promega) as per manufacturer's instructions.

hepatitis B virus (HBV) [3] = experiment: Humanized liver chimeric mouse model of chronic HBV infection, serum HBV DNA by quantitative PCR; assay type: in vivo; details: mean
Description: (§1) This work was conducted in a well-established humanized liver chimeric mouse model of chronic hepatitis B virus (HBV) infection (Tsuge et al., Hepatology, 42(5), 1046-54 (2005)). A persistent level of HBV infection was established in the animals prior to the treatment phase which started at Day 0.
(§2) The anti-HBV effects were assessed based on serum HBsAg levels using the GS HBsAg EIA 3.0 enzyme linked immunosorbent assay kit from Bio-Rad Laboratories as per manufacturer instructions; and serum HBV DNA levels measured from total extracted DNA using a quantitative PCR assay (primer/probe sequences from Tanaka et al., Journal of Medical Virology, 72, 223-229 (2004)).

hepatitis B virus (HBV) [4] = experiment: Humanized liver chimeric mouse model of chronic HBV infection, serum HBsAg by EIA; assay type: in vivo; details: mean ± SEM
Description: as §1, §2

## O=C(Nc1ccc(F)c(F)c1)c1cc(S(=O)(=O)NC2CCCC2)ccc1F [Compound 22]
[1]; read-out: AVERAGE % INHIBITION HBeAg, COMPOUND 22 61.73 nM alone
  inhibition at 0.06173 µM: -16.8%
[1]; read-out: AVERAGE % INHIBITION HBeAg, COMPOUND 22 185.19 nM alone
  inhibition at 0.18519 µM: -14.6%
[1]; read-out: AVERAGE % INHIBITION HBeAg, COMPOUND 22 555.56 nM alone
  inhibition at 0.55556 µM: -7.23%
[1]; read-out: AVERAGE % INHIBITION HBeAg, COMPOUND 22 1666.67 nM alone
  inhibition at 1.66667 µM: 8.5%
[1]; read-out: AVERAGE % INHIBITION HBeAg, COMPOUND 22 5000.00 nM alone
  inhibition at 5 µM: 21.7%
[1]; read-out: AVERAGE % INHIBITION, IFNα2a 0.00 IU/mL, COMPOUND 22 61.73 μM
  inhibition at 61.73 µM: -7.2%
[1]; read-out: AVERAGE % INHIBITION, IFNα2a 0.00 IU/mL, COMPOUND 22 185.19 μM
  inhibition at 185.19 µM: -9.57%
[1]; read-out: AVERAGE % INHIBITION, IFNα2a 0.00 IU/mL, COMPOUND 22 555.56 μM
  inhibition at 555.56 µM: -8.17%
[1]; read-out: AVERAGE % INHIBITION, IFNα2a 0.00 IU/mL, COMPOUND 22 1666.67 μM
  inhibition at 1666.67 µM: 5.92%
[1]; read-out: AVERAGE % INHIBITION, IFNα2a 0.00 IU/mL, COMPOUND 22 5000.00 μM
  inhibition at 5000 µM: 20.9%
[1]; read-out: AVERAGE % INHIBITION, TAF 0.00 nM, COMPOUND 22 61.728 nM
  inhibition at 0.061728 µM: -6.71%
[1]; read-out: AVERAGE % INHIBITION, TAF 0.00 nM, COMPOUND 22 185.19 nM
  inhibition at 0.18519 µM: -12.4%
[1]; read-out: AVERAGE % INHIBITION, TAF 0.00 nM, COMPOUND 22 555.56 nM
  inhibition at 0.55556 µM: -5.06%
[1]; read-out: AVERAGE % INHIBITION, TAF 0.00 nM, COMPOUND 22 1666.7 nM
  inhibition at 1.6667 µM: 10.1%
[1]; read-out: AVERAGE % INHIBITION, TAF 0.00 nM, COMPOUND 22 5000 nM
  inhibition at 5 µM: 29.7%
[1]; read-out: Inhibitor B EC50 HBeAg
  EC50: 10.7 µM
[1]; read-out: Inhibitor EC50
  EC50: 10.7 µM

## C=C1[C@H](CO)[C@@H](O)C[C@@H]1n1cnc2c(=O)[nH]c(N)nc21 [Entecavir]
[2]
  EC50: 0.012 µM
Hepatitis B virus (HBV) [3]; Day 0 (start of treatment), SEM in the line below
  Serum HBV DNA: 1.48E+08 Copies/mL
Hepatitis B virus (HBV) [3]; Day 7, Compound 3 oral 100 mg/kg twice daily, SIRNA-NP iv 3 mg/kg every 2 weeks, ETV oral 1.2 μg/kg daily, pegIFN α-2a sc 30 μg/kg twice a week
  Serum HBV DNA: 2.35E+07 Copies/mL
Hepatitis B virus (HBV) [3]; Day 14, same dosages
  Serum HBV DNA: 1.38E+07 Copies/mL
Hepatitis B virus (HBV) [3]; Day 21, same dosages
  Serum HBV DNA: 1.35E+07 Copies/mL
Hepatitis B virus (HBV) [3]; Day 28, same dosages
  Serum HBV DNA: 9.33E+06 Copies/mL
Hepatitis B virus (HBV) [4]; Day 0 (start of treatment)
  Serum HBsAg: 2649 ± 282 IU/mL
Hepatitis B virus (HBV) [4]; Day 21, Compound 3 oral 100 mg/kg twice daily, SIRNA-NP iv 3 mg/kg every 2 weeks, ETV oral 1.2 μg/kg daily, pegIFN α-2a sc 30 μg/kg twice a week
  Serum HBsAg: 2975 ± 629 IU/mL

## CC(C)OC(=O)OCOP(=O)(CO[C@H](C)Cn1cnc2c(N)ncnc21)OCOC(=O)OC(C)C.O=C(O)/C=C/C(=O)O [TDF, tenofovir disoproxil fumarate, reference compound]
[1]; read-out: AVERAGE % INHIBITION HBeAg, TDF 0.12 nM alone
  inhibition at 0.00012 µM: 7.02%
[1]; read-out: AVERAGE % INHIBITION HBeAg, TDF 0.12 nM alone (compound 23 study)
  inhibition at 0.00012 µM: 4.4%
[1]; read-out: AVERAGE % INHIBITION HBeAg, TDF 0.37 nM alone
  inhibition at 0.00037 µM: 6.23%
[1]; read-out: AVERAGE % INHIBITION HBeAg, TDF 0.37 nM alone (compound 23 study)
  inhibition at 0.00037 µM: 6.74%
[1]; read-out: AVERAGE % INHIBITION HBeAg, TDF 3.33 nM alone
  inhibition at 0.00333 µM: 11.6%
[1]; read-out: AVERAGE % INHIBITION HBeAg, TDF 3.33 nM alone (compound 23 study)
  inhibition at 0.00333 µM: 9.05%
[1]; read-out: AVERAGE % INHIBITION HBeAg, TDF 10.00 nM alone
  inhibition at 0.01 µM: 6.07%
[1]; read-out: AVERAGE % INHIBITION HBeAg, TDF 10.00 nM alone (compound 23 study)
  inhibition at 0.01 µM: 0.72%
[1]; read-out: Inhibitor A EC50
  EC50: > 0.1 µM
